Molecular target: GCN2 (Homo sapiens (Human), UniProt Q9P2K8)
Assay: GCN2 Biochemical Assay (TR-FRET, GFP-eIF2S1 substrate phosphorylation)
Conditions: read-out: IC50 (GCN2 Inhibitory Activity)
How it was run: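 TR-FRET readout (Ex 340, Em 490/520 nm) after 2–3 h with Tb-labelled phospho-eIF2S1 antibody in stop mix, following a 70 min room-temperature kinase step. Reaction: in-house GCN2, GFP-eIF2S1, ATP, tRNA in Tris pH 7.5 (2× stocks 1.6 nM, 50 nM, 0.2 mM); compounds tested at 10 concentrations, with a phospho-substrate artifact counter-plate.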

Chain of GCN2 (Q9P2K8 whole entry): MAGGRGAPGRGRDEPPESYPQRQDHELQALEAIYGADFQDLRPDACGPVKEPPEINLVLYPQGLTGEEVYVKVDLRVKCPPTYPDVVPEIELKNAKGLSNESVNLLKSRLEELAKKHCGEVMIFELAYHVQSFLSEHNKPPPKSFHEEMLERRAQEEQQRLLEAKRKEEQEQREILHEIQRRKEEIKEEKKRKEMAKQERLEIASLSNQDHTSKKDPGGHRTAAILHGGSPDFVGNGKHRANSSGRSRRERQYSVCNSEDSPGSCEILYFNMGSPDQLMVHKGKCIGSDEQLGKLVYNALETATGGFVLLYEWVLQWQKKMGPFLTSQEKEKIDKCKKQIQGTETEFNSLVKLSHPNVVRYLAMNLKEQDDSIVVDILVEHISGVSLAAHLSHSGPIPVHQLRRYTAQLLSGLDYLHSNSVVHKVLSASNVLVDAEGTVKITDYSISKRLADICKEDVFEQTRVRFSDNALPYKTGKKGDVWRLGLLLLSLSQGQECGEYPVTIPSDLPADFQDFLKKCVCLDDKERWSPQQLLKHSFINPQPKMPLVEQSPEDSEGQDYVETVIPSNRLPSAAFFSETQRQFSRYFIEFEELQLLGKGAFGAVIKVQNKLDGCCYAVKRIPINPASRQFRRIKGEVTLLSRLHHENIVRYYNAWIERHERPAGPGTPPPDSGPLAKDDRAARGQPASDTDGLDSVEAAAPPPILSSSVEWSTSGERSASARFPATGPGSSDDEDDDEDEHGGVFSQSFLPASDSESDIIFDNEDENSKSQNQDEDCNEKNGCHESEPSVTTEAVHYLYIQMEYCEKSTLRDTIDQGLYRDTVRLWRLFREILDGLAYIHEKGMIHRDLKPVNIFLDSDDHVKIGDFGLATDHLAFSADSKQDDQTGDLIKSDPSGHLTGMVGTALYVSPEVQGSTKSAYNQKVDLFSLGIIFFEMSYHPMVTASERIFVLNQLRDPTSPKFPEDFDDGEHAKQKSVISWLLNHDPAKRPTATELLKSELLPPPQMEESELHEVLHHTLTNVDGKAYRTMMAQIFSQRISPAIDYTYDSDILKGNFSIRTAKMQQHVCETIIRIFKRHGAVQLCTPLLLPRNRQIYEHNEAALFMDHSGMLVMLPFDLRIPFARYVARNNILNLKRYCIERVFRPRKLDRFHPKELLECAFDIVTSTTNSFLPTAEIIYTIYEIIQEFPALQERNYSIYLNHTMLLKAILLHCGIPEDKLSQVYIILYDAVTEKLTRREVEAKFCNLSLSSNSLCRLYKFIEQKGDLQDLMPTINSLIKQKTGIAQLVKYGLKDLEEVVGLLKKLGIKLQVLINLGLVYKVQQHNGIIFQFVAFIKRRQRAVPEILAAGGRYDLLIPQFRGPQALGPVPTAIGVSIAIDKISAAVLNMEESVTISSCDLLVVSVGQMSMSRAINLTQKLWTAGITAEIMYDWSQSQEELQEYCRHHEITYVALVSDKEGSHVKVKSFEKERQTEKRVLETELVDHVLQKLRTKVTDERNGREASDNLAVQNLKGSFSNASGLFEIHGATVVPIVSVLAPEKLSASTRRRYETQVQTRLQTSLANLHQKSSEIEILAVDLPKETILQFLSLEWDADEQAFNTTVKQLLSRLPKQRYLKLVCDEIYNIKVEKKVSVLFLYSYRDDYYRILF

Row | Structure (SMILES) | IC50 [nM]
1 | Cc1cnc(Nc2cc(C)n(C)n2)nc1-c1c[nH]c2c(N3Cc4c(cccc4-c4ccc(N5CCN(C)CC5)cc4)C3=O)cccc12 [Example 426, 2-(3-(2-((1,5-dimethyl-1H-pyrazol-3-yl)amino)-5-methylpyrimidin-4-yl)-1H-indol-7-yl)-4-(4-(4-methylpiperazin-1-yl)phenyl)isoindolin-1-one] | < 10
2 | Cc1cnc(Nc2cc(C)n(C)n2)nc1-c1c[nH]c2c(N3Cc4c(cccc4-c4cc(F)nc(F)c4)C3=O)cccc12 [Example 427, 4-(2,6-difluoropyridin-4-yl)-2-(3-(2-((1,5-dimethyl-1H-pyrazol-3-yl)amino)-5-methylpyrimidin-4-yl)-1H-indol-7-yl)isoindolin-1-one] | < 10
3 | Cc1cnc(Nc2cc(C)n(C)n2)nc1-c1c[nH]c2c(N3Cc4c(cccc4-c4c(F)cncc4F)C3=O)cccc12 [Example 428, 4-(3,5-difluoropyridin-4-yl)-2-(3-(2-((1,5-dimethyl-1H-pyrazol-3-yl)amino)-5-methylpyrimidin-4-yl)-1H-indol-7-yl)isoindolin-t-one] | < 10
4 | Cc1cc(-c2cccc3c2CN(c2cccc4c(-c5nc(Nc6cc(C)n(C)n6)ncc5C)c[nH]c24)C3=O)ccn1 [Example 429, 2-(3-(2-((1,5-dimethyl-1H-pyrazol-3-yl)amino)-5-methylpyrimidin-4-yl)-1H-indol-7-yl)-4-(2-methylpyridin-4-yl)isoindolin-1-one] | < 10
5 | Cc1cnc(Nc2cc(C)n(C)n2)nc1-c1c[nH]c2c(N3Cc4c(cccc4-c4ccc5c(c4)CNC5)C3=O)cccc12 [Example 430, 2-(3-(2-((1,5-dimethyl-1H-pyrazol-3-yl)amino)-5-methylpyrimidin-4-yl)-1H-indol-7-yl)-[4,5′-biisoindolin]-1-one] | < 10
6 | Cc1cnc(Nc2cc(C)n(C)n2)nc1-c1c[nH]c2c(N3Cc4c(cccc4-c4cccnc4F)C3=O)cccc12 [Example 431, 2-(3-(2-((1,5-dimethyl-1H-pyrazol-3-yl)amino)-5-methylpyrimidin-4-yl)-1H-indol-7-yl)-4-(2-fluoropyridin-3-yl)isoindolin-1-one] | < 10
7 | Cc1cnc(Nc2cc(C)n(C)n2)nc1-c1c[nH]c2c(N3Cc4c(cccc4-c4ccc(C#N)cc4)C3=O)cccc12 [Example 432, 4-(2-(3-(2-((1,5-dimethyl-1H-pyrazol-3-yl)amino)-5-methylpyrimidin-4-yl)-1H-indol-7-yl)-1-oxoisoindolin-4-yl)benzonitrile] | < 10
8 | Cc1cnc(Nc2cc(C)n(C)n2)nc1-c1c[nH]c2c(N3Cc4c(cccc4-c4ccc(C#N)cc4F)C3=O)cccc12 [Example 433, 4-(2-(3-(2-((1,5-dimethyl-1H-pyrazol-3-yl)amino)-5-methylpyrimidin-4-yl)-1H-indol-7-yl)-1-oxoisoindolin-4-yl)-3-fluorobenzonitrile] | 10 to 100
9 | Cc1cnc(Nc2cc(C)n(C)n2)nc1-c1c[nH]c2c(N3Cc4c(cccc4-c4ccccc4C(F)(F)F)C3=O)cccc12 [Example 434, 2-(3-(2-((1,5-dimethyl-1H-pyrazol-3-yl)amino)-5-methylpyrimidin-4-yl)-1H-indol-7-yl)-4-(2-(trifluoromethyl)phenyl)isoindolin-1-one] | 100 to 1000
10 | COc1ncccc1-c1cccc2c1CN(c1cccc3c(-c4nc(Nc5cc(C)n(C)n5)ncc4C)c[nH]c13)C2=O [Example 435, 2-(3-(2-((1,5-dimethyl-1H-pyrazol-3-yl)amino)-5-methylpyrimidin-4-yl)-1H-indol-7-yl)-4-(2-methoxypyridin-3-yl)isoindolin-1-one] | < 10
11 | Cc1cnc(Nc2cc(C)n(C)n2)nc1-c1c[nH]c2c(N3Cc4c(cccc4-c4ccc(N(C)C)cc4)C3=O)cccc12 [Example 436, 2-(3-(2-((1,5-dimethyl-1H-pyrazol-3-yl)amino)-5-methylpyrimidin-4-yl)-1H-indol-7-yl)-4-(4-(dimethylamino)phenyl)isoindolin-1-one] | 10 to 100
12 | Cc1cnc(Nc2cc(C)n(C)n2)nc1-c1c[nH]c2c(N3Cc4c(cccc4-c4ccccc4CO)C3=O)cccc12 [Example 437, 2-(3-(2-((1,5-dimethyl-1H-pyrazol-3-yl)amino)-5-methylpyrimidin-4-yl)-1H-indol-7-yl)-4-(2-(hydroxymethyl)phenyl)isoindolin-1-one] | < 10
13 | COc1ccccc1-c1cccc2c1CN(c1cccc3c(-c4nc(Nc5cc(C)n(C)n5)ncc4C)c[nH]c13)C2=O [Example 438, 2-(3-(2-((1,5-dimethyl-1H-pyrazol-3-yl)amino)-5-methylpyrimidin-4-yl)-1H-indol-7-yl)-4-(2-methoxyphenyl)isoindolin-1-one] | 10 to 100
14 | Cc1cnc(Nc2cc(C)n(C)n2)nc1-c1c[nH]c2c(N3Cc4c(cccc4-c4ccccc4-c4ccccc4)C3=O)cccc12 [Example 439, 4-([1,1′-biphenyl]-2-yl)-2-(3-(2-((1,5-dimethyl-1H-pyrazol-3-yl)amino)-5-methylpyrimidin-4-yl)-1H-indol-7-yl)isoindolin-1-one] | > 1000
15 | Cc1ccccc1-c1cccc2c1CN(c1cccc3c(-c4nc(Nc5cc(C)n(C)n5)ncc4C)c[nH]c13)C2=O [Example 440, 2-(3-(2-((1,5-dimethyl-1H-pyrazol-3-yl)amino)-5-methylpyrimidin-4-yl)-1H-indol-7-yl)-4-(o-tolyl)isoindolin-1-one] | 10 to 100
16 | Cc1cnc(Nc2cc(C)n(C)n2)nc1-c1c[nH]c2c(N3Cc4c(cccc4-c4ccccc4O)C3=O)cccc12 [Example 441, 2-(3-(2-((1,5-dimethyl-1H-pyrazol-3-yl)amino)-5-methylpyrimidin-4-yl)-1H-indol-7-yl)-4-(2-hydroxyphenyl)isoindolin-1-one] | 10 to 100
17 | Cc1cnc(Nc2cc(C)n(C)n2)nc1-c1c[nH]c2c(N3Cc4c(cccc4-c4ccc[nH]4)C3=O)cccc12 [Example 442, 2-(3-(2-((1,5-dimethyl-1H-pyrazol-3-yl)amino)-5-methylpyrimidin-4-yl)-1H-indol-7-yl)-4-(1H-pyrrol-2-yl)isoindolin-1-one] | 10 to 100
18 | Cc1cnc(Nc2cc(C)n(C)n2)nc1-c1c[nH]c2c(N3Cc4c(cccc4-c4cccn4C(=O)OC(C)(C)C)C3=O)cccc12 [Example 443, tert-butyl 2-(2-(3-(2-((1,5-dimethyl-1H-pyrazol-3-yl)amino)-5-methylpyrimidin-4-yl)-1H-indol-7-yl)-1-oxoisoindolin-4-yl)-1H-pyrrole-1-carboxylate] | 10 to 100
19 | Cc1cnc(Nc2cc(C)n(C)n2)nc1-c1c[nH]c2c(N3Cc4c(cccc4-c4c(C)noc4C)C3=O)cccc12 [Example 444, 2-(3-(2-((1,5-dimethyl-1H-pyrazol-3-yl)amino)-5-methylpyrimidin-4-yl)-1H-indol-7-yl)-4-(3,5-dimethylisoxazol-4-yl)isoindolin-1-one] | < 10
20 | COc1cc(-c2cccc3c2CN(c2cccc4c(-c5nc(Nc6cc(C)n(C)n6)ncc5C)c[nH]c24)C3=O)ccn1 [Example 445, 2-(3-(2-((1,5-dimethyl-1H-pyrazol-3-yl)amino)-5-methylpyrimidin-4-yl)-1H-indol-7-yl)-4-(2-methoxypyridin-4-yl)isoindolin-1-one] | < 10
21 | Cc1cnc(Nc2cc(C)n(C)n2)nc1-c1c[nH]c2c(N3Cc4c(cccc4-c4ccnc(O)c4)C3=O)cccc12 [Example 446, 2-(3-(2-((1,5-dimethyl-1H-pyrazol-3-yl)amino)-5-methylpyrimidin-4-yl)-1H-indol-7-yl)-4-(2-hydroxypyridin-4-yl)isoindolin-1-one] | < 10
